Results as given in US20250326741A1, “GLUCOSE-DEPENDENT INSULINOTROPIC POLYPEPTIDE RECEPTOR ANTAGONISTS AND USES THEREOF” (Pfizer Inc., priority 2024, published 2025).
pIC50: −log10 of the molar value.

Molecular target: T1, human Glucose-dependent Insulinotropic Polypeptide Receptor (hGIPR) (Homo sapiens, UniProt P48546)
T1 sequence (P48546 22-466): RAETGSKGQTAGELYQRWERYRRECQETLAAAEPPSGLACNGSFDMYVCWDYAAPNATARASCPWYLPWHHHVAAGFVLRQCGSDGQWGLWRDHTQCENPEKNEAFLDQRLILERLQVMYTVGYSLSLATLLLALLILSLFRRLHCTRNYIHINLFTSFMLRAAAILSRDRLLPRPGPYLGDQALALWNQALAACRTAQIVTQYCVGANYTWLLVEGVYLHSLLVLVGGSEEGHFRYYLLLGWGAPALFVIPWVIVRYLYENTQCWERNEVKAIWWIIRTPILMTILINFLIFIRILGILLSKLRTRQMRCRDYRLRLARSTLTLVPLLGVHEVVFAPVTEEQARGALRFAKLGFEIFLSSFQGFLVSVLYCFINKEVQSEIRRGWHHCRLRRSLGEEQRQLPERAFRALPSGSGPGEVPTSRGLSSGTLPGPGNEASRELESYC
Experiment: Functional in vitro GIPR antagonist potency assay (intracellular cAMP, HTRF, hGIP stimulation at EC80)
Type: cell-based
Details: geometric mean; CHO-K1 cells stably expressing human GIPR, cAMP after hGIP stimulation at EC80
Procedure: Example AA. Functional In Vitro GIPR Antagonist Potency Assay
The functional in vitro antagonist potency for test compounds was determined by monitoring intracellular cyclic adenosine monophosphate (cAMP) levels in Chinese hamster ovary (CHO)—K1 cells stably expressing the human Glucose-dependent Insulinotropic Polypeptide Receptor (hGIPR). Following agonist activation, hGIPR associates with the G-protein complex causing the Gas subunit to exchange bound guanosine diphosphate (GDP) for guanosine triphosphate (GTP), followed by dissociation of the Gas-GTP complex. The activated Gas subunit can couple to downstream effectors to regulate the levels of second messengers or cAMP within the cell. Thereby, determination of intracellular cAMP levels allows for pharmacological characterization. Intracellular cAMP levels are quantitated using a homogenous assay utilizing the Homogeneous Time Resolved Fluorescence (HTRF) technology from Perkin Elmer. The method is a competitive immunoassay between native cAMP produced by the cells and cAMP labelled with the acceptor dye, d2. The two entities compete for binding to a monoclonal anti-cAMP antibody labeled with cryptate. The specific signal is inversely proportional to the concentration of cAMP in the cells.
Test compounds were solubilized to a concentration of 30 mM in 100% dimethyl sulfoxide (DMSO). An 11-point dilution series using 1 in 3.162-fold serial dilutions was created in 100% DMSO with a top concentration of 8 mM. The serially diluted compound was spotted with an Echo Acoustic liquid handler (Beckman Coulter) into a 384-well assay plate (Corning, Cat No. 3824) at 50 nL/well with duplicate points at each concentration, at a 200× final assay concentration (FAC). The final compound concentration range in the assay was 40 μM to […], with a final DMSO concentration of 0.5%.
Frozen assay-ready vials (at 1×10^7 cells/vial) of CHO-K1 cells stably expressing the Gs-coupled human GIPR receptor (Eurofins, DiscoverX, Cat No. 95-0146C2) were thawed, counted, and resuspended in assay buffer consisting of Hank's Balanced Salt Solution (HBSS, Lonza Cat No. 10-527) containing 20 mM (4-(2-hydroxyethyl)-1-piperazineethanesulfonic acid (HEPES, Lonza, Cat No. 17-737E), 0.1% bovine serum albumin (BSA, Sigma, Cat No. A7979), and 200 μM 3-isobutyl-1-methylxanthine (IBMX, Sigma, Cat No. 15879) at a density of 4×10^5 cells/mL. Cells were added to assay plate (5 μL/well of 4×10^5 cells/mL stock for 2,000 cells/well final) containing 50 nL of 200×FAC test compound, and incubated at 37° C. (95% O2: 5% CO2) for 2 hours, with micro-clime lids (Labcyte, Cat No. LLS-0310). Following the 2-hour cell and compound incubation, a stimulation mix comprised of hGIPR agonist human glucose-dependent insulinotropic polypeptide (hGIP, full length, Sigma Cat No. G2269) in assay buffer/0.1% DMSO was added to the assay plate (5 μL/well) at an estimated EC80 FAC (based on previous hGIP agonist curves) and incubated for another 30 minutes with micro-clime lids at 37° C. (95% O2: 5% CO2), after which intracellular cAMP levels were quantified as per Perkin Elmer's protocol (5 μL of d2 and then 5 μL cryptate, incubated for 1 hour at room temperature). Emission spectra of samples were measured on a Pherastar plate reader (BMG Labtech Inc) using a HTRF protocol (excitation, 320 nm; emission, 665 nm/620 nm).
(95% O2: 5% CO2), with a micro-clime lid. Following the 2-hour cell and DMSO incubation, a hGIP concentration response curve at 2×FAC (12-point curve using 1 in 3 serial dilutions, with triplicate points at each concentration, 100 nM final top concentration) in assay buffer/1% DMSO was added (5 μL/well) and incubated for a further 30 minutes with a micro-clime lid at 37° C. (95% O2: 5% CO2), after which intracellular cAMP levels were quantified and samples measured as described previously. Experiments passed quality control if the agonist concentration used for stimulation fell between the on-the-day EC50-EC90. […]

| pIC50 | SMILES |
| --- | --- |
| 7.13 | O=C(O)c1ccc(-n2ccc(NC(=O)[C@H]3CCCN3C(=O)Nc3ccc(C(F)(F)F)cc3)n2)nc1 [Example 27, 6-{3-[(1-{[4-(trifluoromethyl)phenyl]carbamoyl}-D-prolyl)amino]-1H-pyrazol-1-yl}pyridine-3-carboxylic acid] |
| 7.40 | Cc1c(C(=O)O)ccc(-n2ccc(NC(=O)[C@H]3CCCN3C(=O)COc3ccc(OC(F)(F)F)cc3)n2)c1F [Example 65, 3-fluoro-2-methyl-4-{3-[(1-{[4-(trifluoromethoxy)phenoxy]acetyl}-D-prolyl)amino]-1H-pyrazol-1-yl}benzoic acid] |
| 7.47 | CC(C)c1ccc(NC(=O)N2CCC[C@@H]2C(=O)Nc2ccn(-c3ccc(O)cc3F)n2)cc1 [Example 44] |
| 7.82 | CC(C)c1ccc(NC(=O)N2CCC[C@@H]2C(=O)Nc2ccn(-c3ccc(C(=O)O)cc3F)n2)cc1F [Example 34, 3-fluoro-4-{3-[(1-{[3-fluoro-4-(propan-2-yl)phenyl]carbamoyl}-D-prolyl)amino]-1H-pyrazol-1-yl}benzoic acid] |
| 6.35 | Cc1cc(-n2ccc(NC(=O)[C@H]3CCCN3C(=O)CNc3ccc(C(F)(F)F)cc3)n2)ccc1C(N)=O [Example 61, N-[4-(trifluoromethyl)phenyl]glycyl-N-[1-(4-carbamoyl-3-methylphenyl)-1H-pyrazol-3-yl]-D-prolinamide] |
| 6.60 | Cc1cc(NC(=O)N2CCC[C@@H]2C(=O)Nc2ccn(-c3ccc(C(=O)O)cc3)n2)ncc1C(C)C [Example 30, 4-{3-[(1-{[4-methyl-5-(propan-2-yl)pyridin-2-yl]carbamoyl}-D-prolyl)amino]-1H-pyrazol-1-yl}benzoic acid] |
| 7.19 | Cc1cc(NC(=O)N2CCC[C@@H]2C(=O)Nc2ccn(-c3ccc(C(=O)O)cc3)n2)ccc1C(C)C [Example 26, 4-{3-[(1-{[3-methyl-4-(propan-2-yl)phenyl]carbamoyl}-D-prolyl)amino]-1H-pyrazol-1-yl}benzoic acid] |
| 6.51 | Cc1cc(-n2ccc(NC(=O)[C@H]3CCCN3C(=O)Nc3ccc(OC(F)F)cc3)n2)ccc1C(=O)O [Example 56, 4-{3-[(1-{[4-(difluoromethoxy)phenyl]carbamoyl}-D-prolyl)amino]-1H-pyrazol-1-yl}-2-methylbenzoic acid] |
| 6.62 | Cc1cc(-n2ccc(NC(=O)[C@H]3CCCN3C(=O)Nc3ccc(C(F)(F)F)cc3)n2)ccc1C(N)=O [Example 49] |
| 7.11 | Cc1cc(-n2ccc(NC(=O)[C@H]3CCCN3C(=O)CNc3ccc(C(F)(F)F)cc3)n2)ccc1C(=O)O [Example 19, N-[4-(Trifluoromethyl)phenyl]glycyl-N-[1-(4-carboxy-3-methylphenyl)-1H-pyrazol-3-yl]-D-prolinamide] |
| 7.89 | Cc1cc(-n2ccc(NC(=O)[C@H]3CCCN3C(=O)Nc3ccc(C(C)C)cc3)n2)ccc1C(=O)O [Example 29, 2-methyl-4-{3-[(1-{[4-(propan-2-yl)phenyl]carbamoyl}-D-prolyl)amino]-1H-pyrazol-1-yl}benzoic acid] |
| 7.89 | Cc1cc(-n2ccc(NC(=O)[C@H]3CCCN3C(=O)Nc3ccc(C(F)(F)F)c(Cl)c3)n2)ccc1C(=O)O [Example 52, 4-{3-[(1-{[3-chloro-4-(trifluoromethyl)phenyl]carbamoyl}-D-prolyl)amino]-1H-pyrazol-1-yl}-2-methylbenzoic acid] |
| 7.57 | Cc1cc(-n2ccc(NC(=O)[C@H]3CCCN3C(=O)Nc3ccc(C4CC4)c(C)c3)n2)ccc1C(=O)O [Example 39, 4-[3-({1-[(4-cyclopropyl-3-methylphenyl)carbamoyl]-D-prolyl}amino)-1H-pyrazol-1-yl]-2-methylbenzoic acid] |
| 7.44 | Cc1cc(-n2ccc(NC(=O)[C@H]3CCCN3C(=O)COc3ccc(C(F)(F)F)cc3)n2)ccc1C(=O)O [Example 17, 2-Methyl-4-{3-[(1-{[4-(trifluoromethyl)phenoxy]acetyl}-D-prolyl)amino]-1H-pyrazol-1-yl}benzoic Acid] |
| 6.60 | Cc1cc(-n2ccc(NC(=O)[C@H]3CCCN3C(=O)CCc3ccc(C(F)(F)F)cc3)n2)ccc1C(=O)O [Example 18, 2-Methyl-4-{3-[(1-{3-[4-(trifluoromethyl)phenyl]propanoyl}-D-prolyl)amino]-1H-pyrazol-1-yl}benzoic Acid] |
| 7.62 | Cc1cc(NC(=O)N2CCC[C@@H]2C(=O)Nc2ccn(-c3ccc(C(=O)O)cc3)n2)ccc1C(F)(F)F [Example 31, 4-{3-[(1-{[3-methyl-4-(trifluoromethyl)phenyl]carbamoyl}-D-prolyl)amino]-1H-pyrazol-1-yl}benzoic acid] |
| 6.62 | CC(C)c1ccc(NC(=O)N2CCC[C@@H]2C(=O)Nc2ccn(-c3cccc(C(=O)O)c3)n2)cc1 [Example 20, 3-{3-[(1-{[4-(propan-2-yl)phenyl]carbamoyl}-D-prolyl)amino]-1H-pyrazol-1-yl}benzoic acid] |
| 7.05 | O=C(O)c1ccc(-n2ccc(NC(=O)[C@H]3CCCN3C(=O)NCc3ccc(OC(F)(F)F)cc3)n2)cc1 [Example 33, 4-(3-{[1-{{[4-(trifluoromethoxy)phenyl]methyl}carbamoyl)-D-prolyl]amino}-1H-pyrazol-1-yl)benzoic acid] |
| 6.66 | Cc1cc(-n2ccc(NC(=O)[C@H]3CCCN3C(=O)NCc3ccc(C4CC4)cc3)n2)ccc1C(=O)O [Example 47, 4-{3-[(1-{[(4-cyclopropylphenyl)methyl]carbamoyl}-D-prolyl)amino]-1H-pyrazol-1-yl}-2-methylbenzoic acid] |
| 7.89 | Cc1cc(-n2ccc(NC(=O)[C@H]3CCCN3C(=O)Nc3ccc(C4CC4)c(C(F)(F)F)c3)n2)ccc1C(=O)O [Example 53, 4-{3-[(1-{[4-cyclopropyl-3-(trifluoromethyl)phenyl]carbamoyl}-D-prolyl)amino]-1H-pyrazol-1-yl}-2-methylbenzoic acid] |
| 7.92 | O=C(Nc1ccn(-c2cc(F)c(O)c(F)c2)n1)[C@H]1CCCN1C(=O)Nc1ccc(C(F)(F)F)cc1 [Example 54] |
| 7.92 | Cc1cc(-n2ccc(NC(=O)[C@H]3CCCN3C(=O)Nc3ccc(C4CCC4)cc3)n2)ccc1C(=O)O [Example 42, 4-[3-({1-[(4-cyclobutylphenyl)carbamoyl]-D-prolyl}amino)-1H-pyrazol-1-yl]-2-methylbenzoic acid] |
